Assay results from patent US12129221B2, “Difluoro phenyl amide RIP1 inhibitor” (SIRONAX LTD, priority 2018, dated 2024).
Like-named read-outs stand apart in the source and are kept apart here.

How the values were obtained:
necrosis = assay: Necrosis inhibitory activity (cell necrosis / cell viability assay); type: cell-based
Excerpt: Necrosis Inhibitory Activity
(§1) Representative IC50 of hRIP1 Kinase Assay Correlated with Our IC50 of Cell Necrosis Assay: […]

Human RIP1 kinase = Human RIP1 kinase (Homo sapiens (Human), UniProt Q13546); assay: Human RIP1 kinase assay; type: biochemical; conditions: given as bound or range
Sequence of Human RIP1 kinase (Q13546 whole entry): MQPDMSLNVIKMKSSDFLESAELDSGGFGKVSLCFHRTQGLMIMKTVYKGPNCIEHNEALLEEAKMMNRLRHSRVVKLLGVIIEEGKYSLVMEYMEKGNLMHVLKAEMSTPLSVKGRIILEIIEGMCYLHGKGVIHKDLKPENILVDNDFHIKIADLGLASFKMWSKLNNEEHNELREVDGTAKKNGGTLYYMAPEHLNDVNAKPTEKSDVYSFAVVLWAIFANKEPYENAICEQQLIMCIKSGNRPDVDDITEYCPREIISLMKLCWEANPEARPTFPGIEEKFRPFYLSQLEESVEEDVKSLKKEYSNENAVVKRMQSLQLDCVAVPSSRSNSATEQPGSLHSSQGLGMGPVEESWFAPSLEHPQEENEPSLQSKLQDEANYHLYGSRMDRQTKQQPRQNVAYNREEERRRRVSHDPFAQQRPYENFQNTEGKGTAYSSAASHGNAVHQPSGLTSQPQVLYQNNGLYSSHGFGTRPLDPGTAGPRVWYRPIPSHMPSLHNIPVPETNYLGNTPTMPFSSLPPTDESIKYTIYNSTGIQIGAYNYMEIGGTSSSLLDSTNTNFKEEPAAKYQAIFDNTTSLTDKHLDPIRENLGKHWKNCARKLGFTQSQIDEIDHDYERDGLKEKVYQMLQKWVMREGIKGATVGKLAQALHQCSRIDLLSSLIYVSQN
Excerpt: as §1

ferroptosis = assay: Ferroptosis inhibitor activity; type: cell-based; conditions: 1 uM threshold activity extrapolated
Excerpt: Ferroptosis Inhibitor Activity 1 Um Threshold Activity Extrapolated

[1] = Prodrug enhanced metabolic stability: PK; type: in vivo; design: key: +, Extrapolated
Excerpt: (§2) Prodrug Enhanced Metabolic Stability: Liver Microsome (L), Hepatocyte (H) and PK

[2] = Prodrug enhanced metabolic stability: liver microsome (L); type: in vitro ADME; design: key: +, Extrapolated
Excerpt: as §2

[3] = Prodrug enhanced metabolic stability: hepatocyte (H); type: in vitro ADME; design: key: +, Extrapolated
Excerpt: as §2

[4] = Necrosis Inhibitory Activity, given as range, read-out: EC50
[5] = cell necrosis assay, given as bound or range, read-out: Cell viability assay, EC50
[6] = Active Pro-drugs, read-out: EC50

| IC50 (Human RIP1 kinase) | EC50 (ferroptosis) | PK [1] | L [2] | H [3] | SMILES | EC50 (necrosis; [4]) | EC50 (necrosis; [5]) | EC50(nM) (necrosis; Active Pro-drugs) | EC50 (necrosis; [6]) |
| --- | --- | --- | --- | --- | --- | --- | --- | --- | --- |
| < 100 nM | 1000 to 10000 nM |  |  |  | CCC(C)(C)C(=O)N(O)Cc1ccc(Cl)c(F)c1 [Compound 16, N-(4-chloro-3-fluorobenzyl)-N-hydroxy-2,2-dimethylbutanamide] | 1 to 1000 nM | 1 to 1000 nM |  |  |
| < 100 nM | 1000 to 10000 nM |  |  |  | CCC(C)(C)C(=O)N(O)Cc1ccc2c(c1)CCC2 [Compound 20, N-((2,3-dihydro-1H-inden-5-yl)methyl)-N-hydroxy-2,2-dimethylbutanamide] | 1 to 1000 nM | < 100 nM |  |  |
| < 100 nM | 1000 to 10000 nM |  |  |  | CCC(C)(C)C(=O)N(O)Cc1ccsc1 [Compound 23, N-hydroxy-2,2-dimethyl-N-(thiophen-3-ylmethyl)butanamide] | 1 to 1000 nM | 1 to 1000 nM |  |  |
| 100 to 1000 nM | 1000 to 10000 nM |  |  |  | CCC(C)(C)C(=O)N(O)Cc1cnc(C)s1 [Compound 24, N-hydroxy-2,2-dimethyl-N-((2-methylthiazol-5-yl)methyl)butanamide] | 1 to 1000 nM | 1 to 1000 nM |  |  |
| 100 to 1000 nM | 1000 to 10000 nM |  |  |  | O=C(N(O)Cc1ccccc1)C1(C(F)(F)F)CCC1 [Compound 35, N-benzyl-N-hydroxy-1-(trifluoromethyl)cyclobutane-1-carboxamide] | 1 to 1000 nM | 1 to 1000 nM |  |  |
|  |  | + | + | + | CCC(C)(C)C(=O)N(Cc1ccccc1)OC(=O)N1CCCCC1 [Compound 56, N-benzyl-2,2-dimethyl-N-((piperidine-1-carbonyl)oxy)butanamide] |  |  | weak |  |
|  |  | + | + | + | CCC(C)(C)C(=O)N(Cc1ccccc1)OC(=O)N1CCC(N2CCCCC2)CC1 [Compound 57, N-(([1,4′-bipiperidine]-1′-carbonyl)oxy)-N-benzyl-2,2-dimethylbutanamide] |  |  | weak |  |
|  |  | + | + | + | CCC(C)(C)C(=O)N(Cc1ccccc1)OC(=O)Oc1ccccc1 [Compound 58, N-benzyl-2,2-dimethyl-N-((phenoxycarbonyl)oxy)butanamide] |  |  |  | 45.1 nM |
|  |  | + | + | + | CCC(C)(C)C(=O)N(Cc1ccccc1)OC(=O)c1cccnc1 [Compound 60, N-benzyl-2,2-dimethyl-N-(nicotinoyloxy)butanamide] |  |  |  | 83.5 nM |
|  |  | + | + | + | [2H]CC([2H])C(C)(C)C(=O)N(Cc1cc(F)cc(F)c1)OC(=O)OCC (stereo not drawn) [Compound 61, N-(3,5-difluorobenzyl)-N-((ethoxycarbonyl)oxy)-2,2-dimethylbutanamide-3,4-d2] |  |  |  | 128 nM |
|  |  | + | + | + | [2H]CC([2H])C(C)(C)C(=O)N(Cc1cc(F)cc(F)c1)OC(=O)c1cccnc1 (stereo not drawn) [Compound 62, N-(3,5-difluorobenzyl)-2,2-dimethyl-N-(nicotinoyloxy)butanamide-3,4-d2] |  |  |  | 45.3 nM |
|  |  | + | + | + | CCC(C)(C)C(=O)N(Cc1ccccc1)OCOC(=O)C(C)(C)C [Compound 63, ((N-benzyl-2,2-dimethylbutanamido)oxy)methyl pivalate] |  |  |  | 62.9 nM |
|  |  | + | + | + | [2H]CC([2H])C(C)(C)C(=O)N(Cc1cc(F)cc(F)c1)OCOC(=O)C(C)(C)C (stereo not drawn) [Compound 64, ((N-(3,5-difluorobenzyl)-2,2-dimethylbutanamido-3,4-d2)oxy)methyl pivalate] |  |  |  | 91.4 nM |
|  |  | + | + | + | [2H]CC([2H])C(C)(C)C(=O)N(Cc1cc(F)cc(F)c1)OC(=O)OCCOC (stereo not drawn) [Compound 65, N-(3,5-difluorobenzyl)-N-(((2-methoxyethoxy)carbonyl)oxy)-2,2-dimethylbutanamide-3,4-d2] |  |  |  | 37.2 nM |
|  |  | + | + | + | [2H]CC([2H])C(C)(C)C(=O)N(Cc1cc(F)cc(F)c1)OC(=O)OCCOCCOC (stereo not drawn) [Compound 66, N-(3,5-difluorobenzyl)-N-(((2-(2-methoxyethoxy)ethoxy)carbonyl)oxy)-2,2-dimethylbutanamide-3,4-d2] |  |  |  | 46 nM |
|  |  | + | + | + | [2H]CC([2H])C(C)(C)C(=O)N(Cc1cc(F)cc(F)c1)OC(=O)OCCOCCOCCOC (stereo not drawn) [Compound 67, N-((2,5,8,11-tetraoxadodecanoyl)oxy)-N-(3,5-difluorobenzyl)-2,2-dimethylbutanamide-3,4-d2] |  |  |  | 58.5 nM |
|  |  | + | + | + | CCC(C)(C)C(=O)N(Cc1ccccc1)OCOP(=O)(OCc1ccccc1)OCc1ccccc1 [Compound 69, dibenzyl (((N-benzyl-2,2-dimethylbutanamido)oxy)methyl) phosphate] |  |  | weak |  |
|  |  | + | + | + | CCC(C)(C)C(=O)N(Cc1ccccc1)OP(=O)(O)O [Compound 71, ((N-benzyl-2,2-dimethylbutanamido)oxy)phosphonic acid] |  |  |  | 28.7 nM |
|  |  | + | + | + | CCC(C)(C)C(=O)N(Cc1ccccc1)OC(=O)CCCC[C@@H]1SC[C@@H]2NC(=O)N[C@@H]21 [Compound 72, N-benzyl-2,2-dimethyl-N-((5-((3aS,4S,6aR)-2-oxohexahydro-1H-thieno[3,4-d]imidazol-4-yl)pentanoyl)oxy)butanamide] |  |  |  | 159 nM |
|  |  | + | + | + | CCC(C)(C)C(=O)N(Cc1ccccc1)OCc1ccc(O)cc1 [Compound 73, N-benzyl-N-((4-hydroxybenzyl)oxy)-2,2-dimethylbutanamide] |  |  |  | 489 nM |
|  | 1000 to 10000 nM | + | + | + | CC(C)(C(=O)N(O)Cc1ccccc1)C(F)F [Compound 74, N-benzyl-3,3-difluoro-N-hydroxy-2,2-dimethylpropanamide] | 1 to 1000 nM |  |  |  |
|  | 1000 to 10000 nM | + | + | + | CC(C)(C(=O)N(O)Cc1cc(F)cc(F)c1)C(F)F [Compound 75, N-(3,5-difluorobenzyl)-3,3-difluoro-N-hydroxy-2,2-dimethylpropanamide] | 1 to 1000 nM |  |  |  |
|  | 1000 to 10000 nM | + | + | + | CC(C)(CCF)C(=O)N(O)Cc1cc(F)cc(F)c1 [Compound 76, N-(3,5-difluorobenzyl)-4-fluoro-N-hydroxy-2,2-dimethylbutanamide] | 1000 to 10000 nM |  |  |  |
|  |  | + | + | + | CCC(C)(C)C(=O)N(Cc1ccccc1)OC(=O)C(C)(C)C [Compound 77, N-benzyl-2,2-dimethyl-N-(pivaloyloxy)butanamide] |  |  |  | 6830 nM |
|  |  | + | + | + | CCC(C)(C)C(=O)N(Cc1ccccc1)OC(=O)[C@@H](NC(=O)OC(C)(C)C)C(C)C [Compound 79, tert-butyl (S)-(1-((N-benzyl-2,2-dimethylbutanamido)oxy)-3-methyl-1-oxobutan-2-yl)carbamate] |  |  |  | 1430 nM |
|  |  | + | + | + | CCC(C)(C)C(=O)N(Cc1ccccc1)OC(=O)[C@@H](N)C(C)C [Compound 80, N-((L-valyl)oxy)-N-benzyl-2,2-dimethylbutanamide] |  |  |  | 24.2 nM |
|  |  | + | + | + | CCC(C)(C)C(=O)N(Cc1ccccc1)OC(=O)[C@@H]1CCCN1C(=O)OC(C)(C)C [Compound 81, tert-butyl (S)-2-(((N-benzyl-2,2-dimethylbutanamido)oxy)carbonyl)pyrrolidine-1-carboxylate] |  |  |  | 3250 nM |
|  |  | + | + | + | CCC(C)(C)C(=O)N(Cc1ccccc1)OC(=O)CN(C)C [Compound 82, N-benzyl-N-((dimethylglycyl)oxy)-2,2-dimethylbutanamide] |  |  |  | 116 nM |
|  |  | + | + | + | CCC(C)(C)C(=O)N(Cc1ccccc1)OC(=O)[C@@H](N)CO [Compound 83, N-((L-seryl)oxy)-N-benzyl-2,2-dimethylbutanamide] |  |  |  | 898 nM |
|  |  | + | + | + | CCOC(=O)ON(Cc1cc(F)cc(F)c1)C(=O)C(C)(C)CC [Compound 87, N-(3,5-difluorobenzyl)-N-((ethoxycarbonyl)oxy)-2,2-dimethylbutanamide] |  |  |  | 67.8 nM |

| SMILES | IC50 (Human RIP1 kinase) | EC50 (ferroptosis) | PK [1] | L [2] | H [3] | EC50 (necrosis; [4]) | EC50 (necrosis; [5]) | EC50(nM) (necrosis; Active Pro-drugs) | EC50 (necrosis; [6]) |
| --- | --- | --- | --- | --- | --- | --- | --- | --- | --- |
| CCC(C)(C)C(=O)N(Cc1ccccc1)OC(=O)OCC(C)C [Compound 59, N-benzyl-N-((isobutoxycarbonyl)oxy)-2,2-dimethylbutanamide] |  |  | + | + | + |  |  |  | 44.8 nM |
| CCC(C)(C)C(=O)N(Cc1ccccc1)OP(=O)(N(C)C)N(C)C [Compound 68, N-benzyl-N-((bis(dimethylamino)phosphoryl)oxy)-2,2-dimethylbutanamide] |  |  | + | + | + |  |  |  | 1620 nM |
| CCC(C)(C)C(=O)N(Cc1ccccc1)OP(=O)(OC)OC [Compound 70, dimethyl ((N-benzyl-2,2-dimethylbutanamido)oxy)phosphonate] |  |  | + | + | + |  |  |  | 1700 nM |
